Source: ChEMBL document CHEMBL1201862, “PubChem BioAssay data set” (2004)
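In this assay, cells in 96-well plates receive the compound at five concentrations for 48 hours. Endpoints are linearly interpolated between the surrounding concentrations. GI50: concentration for 50% inhibition of growth.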 Activity calls are given as the source filed them. Cut-off read from the data, not from the text of the source: active = GI50 up to about 1.1 µM and inactive = higher.

How the values were obtained:
Experiment in all cases: growth of human tumour cells (NCI), 48 h
[1] = test system: SW-620
[2] = test system: PC-3
[3] = test system: HL-60
[4] = test system: CAKI-1
[5] = test system: OVCAR-8
[6] = test system: MOLT-4
[7] = test system: COLO 205
[8] = test system: OVCAR-4
[9] = test system: HOP-62
[10] = test system: OVCAR-5
[11] = test system: SF-539
[12] = test system: HOP-92
[13] = test system: SF-295
[14] = test system: M14
[15] = test system: U-251
[16] = test system: NCI-H23
[17] = test system: SNB-75
[18] = test system: SK-MEL-28
[19] = test system: RPMI-8226
[20] = test system: ACHN
[21] = test system: OVCAR-3
[22] = test system: MDA-N
[23] = test system: HCC 2998
[24] = test system: K562
[25] = test system: SK-MEL-5
[26] = test system: MDA-MB-435
[27] = test system: A549
[28] = test system: HCT-116
[29] = test system: HCT-15
[30] = test system: NCI/ADR-RES
[31] = test system: UACC-257
[32] = test system: 786-0
[33] = test system: MCF7
[34] = test system: NCI-H522
[35] = test system: SR
[36] = test system: SK-OV-3
[37] = test system: KM12
[38] = test system: Hs-578T
[39] = test system: BT-549
[40] = test system: HT-29
[41] = test system: TK-10
[42] = test system: MDA-MB-231
[43] = test system: Malme-3M
[44] = test system: DU-145
[45] = test system: SNB-19
[46] = test system: SF-268
[47] = test system: LOX IMVI
[48] = test system: SN12C
[49] = test system: EKVX
[50] = test system: RXF 393
[51] = test system: UO-31
[52] = test system: NCI-H226
[53] = test system: CCRF-CEM
[54] = test system: A498
[55] = test system: IGROV-1
[56] = test system: NCI-H460
[57] = test system: UACC-62

OCCN1c2ccccc2Sc2ccccc21
GI50 [1]: > 10 µM (inactive)
GI50 [2]: > 10 µM (inactive)
GI50 [3]: > 10 µM (inactive)
GI50 [4]: > 10 µM (inactive)
GI50 [5]: > 10 µM (inactive)
GI50 [6]: > 10 µM (inactive)
GI50 [7]: > 10 µM (inactive)
GI50 [8]: > 10 µM (inactive)
GI50 [9]: > 10 µM (inactive)
GI50 [10]: > 10 µM (inactive)
GI50 [11]: > 10 µM (inactive)
GI50 [12]: > 10 µM (inactive)
GI50 [13]: > 10 µM (inactive)
GI50 [14]: > 10 µM (inactive)
GI50 [15]: > 10 µM (inactive)
GI50 [16]: > 10 µM (inactive)
GI50 [17]: > 10 µM (inactive)
GI50 [18]: > 10 µM (inactive)
GI50 [19]: > 10 µM (inactive)
GI50 [20]: > 10 µM (inactive)
GI50 [21]: > 10 µM (inactive)
GI50 [22]: > 10 µM (inactive)
GI50 [23]: > 10 µM (inactive)
GI50 [24]: > 10 µM (inactive)
GI50 [25]: > 10 µM (inactive)
GI50 [26]: > 10 µM (inactive)
GI50 [27]: > 10 µM (inactive)
GI50 [28]: > 10 µM (inactive)
GI50 [29]: > 10 µM
GI50 [30]: > 10 µM (inactive)
GI50 [31]: > 10 µM (inactive)
GI50 [32]: > 10 µM (inactive)
GI50 [33]: > 10 µM (inactive)
GI50 [34]: > 10 µM (inactive)
GI50 [35]: > 10 µM (inactive)
GI50 [36]: > 10 µM (inactive)
GI50 [37]: > 10 µM (inactive)
GI50 [38]: > 10 µM (inactive)
GI50 [39]: > 10 µM (inactive)
GI50 [40]: > 10 µM (inactive)
GI50 [41]: > 10 µM (inactive)
GI50 [42]: > 10 µM (inactive)
GI50 [43]: > 10 µM (inactive)
GI50 [44]: > 10 µM (inactive)
GI50 [45]: > 10 µM (inactive)
GI50 [46]: > 10 µM (inactive)
GI50 [47]: > 10 µM (inactive)
GI50 [48]: > 10 µM (inactive)

C=CCN1C(=O)CC1N(CC=C)S(=O)(=O)c1ccc(C)cc1 (stereo not given)
GI50 [1]: > 100 µM (inactive)
GI50 [2]: > 100 µM (inactive)
GI50 [3]: > 100 µM (inactive)
GI50 [4]: > 100 µM (inactive)
GI50 [49]: > 100 µM (inactive)
GI50 [5]: > 100 µM (inactive)
GI50 [6]: > 100 µM (inactive)
GI50 [7]: > 100 µM (inactive)
GI50 [50]: > 100 µM (inactive)
GI50 [8]: > 100 µM (inactive)
GI50 [10]: > 100 µM (inactive)
GI50 [12]: > 100 µM (inactive)
GI50 [13]: > 100 µM (inactive)
GI50 [14]: > 100 µM (inactive)
GI50 [15]: > 100 µM (inactive)
GI50 [16]: > 100 µM (inactive)
GI50 [18]: > 100 µM (inactive)
GI50 [19]: > 100 µM (inactive)
GI50 [20]: > 100 µM (inactive)
GI50 [21]: > 100 µM (inactive)
GI50 [22]: > 100 µM (inactive)
GI50 [23]: > 100 µM (inactive)
GI50 [24]: 98.4 µM (inactive)
GI50 [51]: > 100 µM (inactive)
GI50 [25]: > 100 µM (inactive)
GI50 [52]: > 100 µM (inactive)
GI50 [53]: > 100 µM (inactive)
GI50 [26]: > 100 µM (inactive)
GI50 [27]: > 100 µM (inactive)
GI50 [28]: > 100 µM (inactive)
GI50 [29]: > 100 µM
GI50 [54]: > 100 µM (inactive)
GI50 [30]: > 100 µM (inactive)
GI50 [31]: > 100 µM (inactive)
GI50 [32]: > 100 µM (inactive)
GI50 [33]: > 100 µM (inactive)
GI50 [34]: > 100 µM (inactive)
GI50 [35]: 82.8 µM (inactive)
GI50 [36]: > 100 µM (inactive)
GI50 [37]: > 100 µM (inactive)
GI50 [38]: > 100 µM (inactive)
GI50 [39]: > 100 µM (inactive)
GI50 [40]: > 100 µM (inactive)
GI50 [41]: > 100 µM (inactive)
GI50 [55]: > 100 µM (inactive)
GI50 [43]: > 100 µM (inactive)
GI50 [44]: > 100 µM (inactive)
GI50 [45]: > 100 µM (inactive)
GI50 [56]: > 100 µM (inactive)
GI50 [57]: > 100 µM (inactive)
GI50 [47]: > 100 µM (inactive)
GI50 [48]: 61.7 µM (inactive)
